Test results from patent publication US20230250054A1, “SELECTIVE HISTONE DEACETYLASE 6 INHIBITORS” (The Board of Trustees of the University of Illinois, priority 2020, published 2023).

Tests used:
HDAC6 = molecular target: T1, HDAC6 (Homo sapiens, UniProt Q9UBN7); test: Fluorescence-based HDAC inhibition assay, HDAC6; assay type: biochemical; conditions: Table 2
T1 construct: our assay that uses approximately 0.6 nM concentration of the full-length enzyme; made in house; host or cells: HEK293/T17 cells, transient transfection
T1 sequence (Q9UBN7 1-1215): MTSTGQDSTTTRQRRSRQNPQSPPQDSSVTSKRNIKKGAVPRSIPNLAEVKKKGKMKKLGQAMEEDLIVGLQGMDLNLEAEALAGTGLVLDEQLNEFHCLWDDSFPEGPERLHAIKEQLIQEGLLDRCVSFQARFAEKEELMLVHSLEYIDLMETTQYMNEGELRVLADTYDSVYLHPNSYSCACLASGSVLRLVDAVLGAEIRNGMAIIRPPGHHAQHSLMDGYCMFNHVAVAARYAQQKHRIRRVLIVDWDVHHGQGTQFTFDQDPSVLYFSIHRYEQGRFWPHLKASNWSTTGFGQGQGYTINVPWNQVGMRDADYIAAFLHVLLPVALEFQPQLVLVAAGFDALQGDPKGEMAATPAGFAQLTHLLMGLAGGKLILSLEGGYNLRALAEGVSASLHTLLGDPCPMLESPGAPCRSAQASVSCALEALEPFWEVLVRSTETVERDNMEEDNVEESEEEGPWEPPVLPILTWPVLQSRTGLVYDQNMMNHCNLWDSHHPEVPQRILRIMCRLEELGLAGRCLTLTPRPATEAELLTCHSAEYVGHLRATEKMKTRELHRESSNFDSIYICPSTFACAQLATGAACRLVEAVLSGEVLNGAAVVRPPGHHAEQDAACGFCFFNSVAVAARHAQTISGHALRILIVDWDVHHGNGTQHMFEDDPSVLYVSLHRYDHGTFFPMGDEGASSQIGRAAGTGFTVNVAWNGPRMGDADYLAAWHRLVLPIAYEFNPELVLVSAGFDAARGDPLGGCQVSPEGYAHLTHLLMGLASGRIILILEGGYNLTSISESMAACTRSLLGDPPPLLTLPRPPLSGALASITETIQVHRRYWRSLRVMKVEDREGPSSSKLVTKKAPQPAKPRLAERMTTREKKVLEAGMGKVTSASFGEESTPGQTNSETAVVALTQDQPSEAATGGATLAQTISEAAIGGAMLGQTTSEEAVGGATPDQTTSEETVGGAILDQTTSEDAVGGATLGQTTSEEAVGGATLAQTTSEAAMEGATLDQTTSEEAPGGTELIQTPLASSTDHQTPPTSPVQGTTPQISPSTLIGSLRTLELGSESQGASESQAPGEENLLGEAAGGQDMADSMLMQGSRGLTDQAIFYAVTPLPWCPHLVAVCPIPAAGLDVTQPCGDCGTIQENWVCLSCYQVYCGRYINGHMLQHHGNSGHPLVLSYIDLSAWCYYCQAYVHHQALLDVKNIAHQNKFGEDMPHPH
Method: (§1) Briefly, transiently transfected cells were harvested three days post-transfection and the cell pellets resuspended in a lysis buffer (50 mM Tris, 150 mM NaCl, 10 mM KCl, 2 mM MgCl2, 10% glycerol, 0.2% NP-40, 2 Units/mL benzonase, pH 8) supplemented with a cocktail of protease inhibitors (Roche, Basel, Switzerland). Cells were lysed by sonication (30 W; 3×20 s) on ice, and the cell lysate cleared by centrifugation at 40 000×g for 30 min at 4° C. […] Purified proteins were concentrated to 1 mg/mL, aliquoted, flash-frozen in liquid nitrogen, and stored at −80° C. until further use.
(§2) Briefly, individual HDACs were preincubated with dilution series of tested inhibitors (0-100 μM) in a 384-well plate in the total volume of 40 μL for 10 min at 37° C. in a reaction buffer comprising 50 mM HEPES, 140 mM NaCl, 10 mM KCl, 1 mM TCEP, 0.1% BSA, pH 7.4. Deacetylation reaction was started by the addition of 10 μL of a 10 μM substrate into the HDAC/inhibitor mixture. Following the 30 min incubation at 37° C., the reaction was terminated by the addition of 25 μL of the trypsin solution (4 mg/mL). Fluorescence development by trypsin was carried out at 37° C. for 15 and 60 min for Ac-GAK(Ac)-AMC and Boc-Lys(TFA)-AMC substrate, respectively. […] Non-linear regression analysis was employed to calculate IC50 values using the GraphPad Prism software. […] Reactions without the enzyme or the inhibitor were used to define 0% and 100% of the HDAC activity, respectively.

HDAC1 = molecular target: T2, HDAC1 (Homo sapiens, UniProt Q13547); test: Fluorescence-based HDAC inhibition assay, HDAC1; assay type: biochemical; conditions: ratio HDAC1 IC50 / HDAC6 IC50, Table 2
T2 construct: made in house; host or cells: HEK293/T17 cells, transient transfection
T2 sequence (Q13547 whole entry): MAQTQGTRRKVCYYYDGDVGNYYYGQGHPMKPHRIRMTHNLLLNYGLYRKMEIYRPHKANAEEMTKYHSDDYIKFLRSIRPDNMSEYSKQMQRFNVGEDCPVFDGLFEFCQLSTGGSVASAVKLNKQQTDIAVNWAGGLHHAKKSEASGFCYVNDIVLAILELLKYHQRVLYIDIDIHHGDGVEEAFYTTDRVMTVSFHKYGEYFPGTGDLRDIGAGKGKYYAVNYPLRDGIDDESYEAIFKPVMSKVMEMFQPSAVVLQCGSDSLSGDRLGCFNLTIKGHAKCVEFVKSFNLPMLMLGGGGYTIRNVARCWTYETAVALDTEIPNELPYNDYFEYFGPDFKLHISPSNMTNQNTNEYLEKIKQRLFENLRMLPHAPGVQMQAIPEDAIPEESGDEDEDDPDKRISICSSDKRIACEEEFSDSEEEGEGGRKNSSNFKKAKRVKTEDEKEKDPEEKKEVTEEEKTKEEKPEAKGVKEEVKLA
Method: as §1, §2

IC50 (HDAC6) [µM] | SMILES | HDAC1/6 (HDAC1)
16.8 | NCc1ccc(NC(=O)N(CCCCO)Cc2ccc(C(=O)O)cc2)cc1 [Compound 6d, 4-((3-(4-(Aminomethyl)phenyl)-1-(4-hydroxybutyl)ureido)methyl)benzoic acid] | –
> 30 | NCc1ccc(NC(=O)N(CCCCO)Cc2ccc(B(O)O)cc2)cc1 [Compound 6f, (4-((3-(4-(Aminomethyl)phenyl)-1-(4-hydroxybutyl)ureido)methyl)phenyl)boronic acid] | –
> 30 | NCc1ccc(NC(=O)N(CCCCO)Cc2ccc(C(N)=O)cc2)cc1 [Compound 6e, 4-((3-(4-(Aminomethyl)phenyl)-1-(4-hydroxybutyl)ureido)methyl)benzamide] | –
– | O=C(CCCCCCC(=O)Nc1ccccc1)NO [Vorinostat, reference compound] | 5
